Assay results published in US6949558B2, “Enhancement of taxane-based chemotherapy by a CDK1 antagonist” (Yale University, priority 2001, dated 2005).
Several values for one entry are separate records, joined by “and”; a condition that tells them apart may be missing. Equal values may be shown once.

Experiments:
HeLa cells [1] = test: Apoptosis by DNA content analysis and flow cytometry in HeLa cells; format: cell-based, human
Procedure: Cervical carcinoma HeLa (functionally inactivated p53) cells or breast carcinoma MCF-7 (wild type p53) cells were plated at 50-60% confluency in C-6 wells. Cells were treated with taxol at 0.2 μM for 0 to 32 hours in complete media.
(§1) After 4, 8, 16, and 32 hours of incubation, without removing taxol from the wells, purvalanol A was added at three increasing concentrations, 1, 10 and 20 uM (FIG. 1). A control was performed with addition of purvalanol A at the 0-h time point.
(§2) The cell populations were harvested at increasing time intervals from the 0-h time point or corresponding to the addition of purvalanol A. Apoptosis was analyzed by DNA content analysis and flow cytometry (DAPI staining).

MCF-7 cells = test: Apoptosis by DNA content analysis and flow cytometry in MCF-7 cells; format: cell-based, human
Procedure: Cervical carcinoma HeLa (functionally inactivated p53) cells or breast carcinoma MCF-7 (wild type p53) cells were plated at 50-60% confluency in C-6 wells. […]
as §1, §2

[2] = system: p34^cdc2 kinase activity (MPM-2 epitope) in HeLa cells; test: MPM-2 mitotic phosphoepitope expression (p34^cdc2 kinase activity) in HeLa cells; format: cell-based, human
[3] = system: survivin expression in HeLa cells; test: Survivin expression by Western blotting in HeLa cells; format: cell-based, human
Procedure: (§3) Cell Cultures, Proteins and Antibodies: Breast carcinoma MCF-7 and cervical carcinoma HeLa cells (American Type Culture Collection, Manassas, Va.) were maintained in culture according to the manufacturer's specifications. For treatment with genotoxic agents, HeLa or MCF-7 cells were incubated with vehicle (DMSO) or taxol (2 μM, Sigma Chemical Co., St. Louis, Mo.), adriamycin (100 nM, Sigma), cis-platin (3 μM, Sigma) or subjected to ultraviolet B (UVB) irradiation at 50 or 300 J/m^2. In some experiments, HeLa or MCF-7 treated with taxol, adriamycin or UVB as described above were incubated with inhibitors of transcription (actinomycin D, 1 μg/ml) or translation (cycloheximide, 2 mg/ml) before determination of protein expression by Western blotting. […] A replication-deficient adenovirus encoding wild type survivin (pAd-Survivin) or control encoding Green Fluorescence Protein (pAd-GFP) was generated using the pAd-Easy system as described previously (M. Mesri et al. (2001) J. Clin. Invest. 108: 981-90), and propagated in HEK293 cells with purification by CsCl banding. […] Antibodies to p34^cdc2 or bcl-2 were obtained from Pharmingen (San Diego, Calif.) and R&D, respectively. An antibody to β-actin was from Sigma and antibodies to MPM-2 mitotic phosphoproteins was from Upstate Biotechnology (Lake Placid, N.Y.).
(§4) In some experiments, total RNA was extracted from MCF-7 cells at various time intervals after adriamycin treatment, and hybridized with 32 P-labeled survivin cDNA as described previously. Radioactive bands were detected by autoradiography. […] In other experiments, samples were transferred to nylon membranes and analyzed by Western blotting with antibodies to p34^cdc2 (1 μg/ml), survivin (2 μg/ml), or survivinT34* (5 μg/ml).
In other experiments, HeLa cells were treated with taxol (0.2 μM) for 16 h followed by the DNA damaging agent adriamycin (100 nM, Sigma) or the nucleoside analog 5-Fluorouracil (500 μM, Sigma) for 8-32 h at 37° C. […] In some experiments, HeLa cells were transfected by lipofectamine with a minimal survivin promoter construct upstream of a luciferase reporter gene (pLuc-cyc1.2), as described (F. Li et al. (1998) Nature 396: 580-584). Cells were treated with taxol (2 μM) or UVB (50 J/m2), and analyzed for changes in luciferase activity at increasing time intervals (12-36 h) in a luminometer. Luciferase values were normalized to β-galactosidase expression. […] The immune complexes were separated by SDS gel electrophoresis and analyzed with antibodies to survivin or a-survivinT34* by Western blotting.

[4] = system: survivin expression in PC3 cells; test: Survivin expression by Western blotting in PC3 cells; format: cell-based; conditions: taxol then Purvalanol A
[5] = system: survivin phosphorylation on Thr^34 in HeLa cells; test: Survivin phosphorylation on Thr^34 in HeLa cells (immunoprecipitation, Western blotting); format: cell-based, human; conditions: taxol 0.2 μM 16 h then Purvalanol A 20 μM 16 h
Procedure: A. In vitro kinase assay. […] Radioactive bands were detected by autoradiography. […] The immune complexesb were analyzed by Western blotting (WB) with an antibody to Thr^34-phosphorylated survivin (a-survivinT34*, top panel) or with an antibody to survivin (a-survivin, lower panel) followed by chemiluminescence. For all panels, relative molecular weight markers in kDa are shown on the left.
as §4
Luciferase values were normalized to β-galactosidase expression.

MCF-7 tumors = test: Breast cancer xenograft model (Example 8); format: in vivo, CB17 SCID/beige mice; conditions: taxol alone 2.5 or 5 mg/kg, Purvalanol A alone 20 mg/kg, i.p.
Procedure: Breast Cancer Xenograft Model: All experiments involving animals were approved by the institutional animal cure and use committee. Six- to eight-week old female CB17 SCID/beige mice (Taconic Farms, Germantown, N.Y.) were injected s.c. into the flanks with 2.5×10^6 exponentially growing MCF-7 cells in 250 μl of sterile PBS, pH 7.4. […] Animals were injected i.p. with taxol alone (2.5 or 5 mg/kg), Purvalanol A alone (20 mg/kg) or the sequential combination of taxol-Purvalanol A for two consecutive days each divided by a day with no treatment. For single agent treatment, vehicle was given in place of taxol or Purvalanol A with the same schedule. Each complete cycle was separated by 2 d without treatment. Tumor volume was measured in the three dimensions with a caliper. Animals with tumor burden >3000 mm^3 were sacrificed (Survival).
Statistical Analysis: All in vitro experiments were repeated at least three times. […] The survival curves were compared using the log-rank test. This test generates a P value testing the null hypothesis that the survival curves are identical in the overall populations.

HeLa cells [6] = test: Apoptosis by DNA content analysis and flow cytometry in HeLa cells; format: cell-based, human; remark: listed apart in the source
caspase-9 = test: Caspase-9 processing by Western blotting in HeLa cells; conditions: taxol 0.2 μM, Purvalanol A 20 μM or sequential combination, 16 h
[7] = system: p34^cdc2 kinase activity (MPM-2 epitope) in MCF-7 cells; test: MPM-2 mitotic phosphoepitope expression (p34^cdc2 kinase activity) in MCF-7 cells; format: cell-based, human; conditions: adriamycin-induced G2/M arrest
Procedure: MPM-2 Mitotic Phosphoepitope Expression: For detection of mitotic phosphoproteins (D. D. Vandre et al. (1989) J. Cell Sci. 94: 245-58), MCF-7 cells (1-2×10^5 cells/60 mm dish) were treated with taxol (2 μM), adriamycin (100 nM), 50 or 300 J/m^2 UVB irradiation and cultured for 0, 8, 16, 24 or 36 h at 37° C. Cells were fixed in 70% ethanol, labeled with MPM-2 antibody (6 μg/ml) followed by addition of goat anti-mouse FITC (Boehringer Mannheim) for 1 h at 22° C. in the presence of 5 μg/ml propidium iodide (PI) containing 50 μg/ml RNase A. Samples were analyzed on a FACScan (Becton Dickinson, Mountain View, Calif.), using CellQuest software.
MPM-2 Mitotic Phosphoepitope Expression: For detection of mitotic phosphoproteins (D. D. Vandre et al. (1989) J. Cell Sci. 94: 245-258), MCF-7 cells (1-2×10^5 cells/60 mm dish) were treated with taxol (0.2 μM), or vincristine (100 nM) for increasing time intervals (8-36 h) at 37° C. Cells were fixed in 70% ethanol, labeled with MPM-2 antibody (6 μg/ml; Upstate Biotechnology, Lake Placid, N.Y.) followed by addition of goat anti-mouse FITC (Boehringer Mannheim) for 1 h at 22° C. in the presence of 5 μg/ml propidium iodide containing 50 μg/ml RNAse A. Samples were analyzed on a FACScan (Becton Dickinson, Mountain View, Calif.), using CellQuest software. Data are expressed as %MPM-2 positive cells in the entire population.

[8] = system: survivin expression in MCF-7 cells; test: Survivin expression by Western blotting in MCF-7 cells; format: cell-based, human; conditions: 100 nM adriamycin
Procedure: as §3, §4

[9] = system: survivin mRNA in MCF-7 cells; test: Northern hybridization of survivin mRNA in MCF-7 cells; format: cell-based, human; conditions: adriamycin-treated MCF-7 cells
Procedure: as §4

MCF-7 xenografts = format: in vivo; conditions: adriamycin 2 mg/kg or flavopiridol 15 mg/kg alone, i.p.
Excerpt: Each complete cycle was separated by 2 d without treatment.
This test generates a P value testing the null hypothesis that the survival curves are identical in the overall populations.

[10] = taxol 2 μM, adriamycin 100 nM, cis-platin 3 μM (Example 7)

SMILES: CC(C)[C@H](CO)Nc1nc(Nc2cccc(Cl)c2)c2ncn(C(C)C)c2n1 [Purvalanol A]
- cell population with hypodiploid (apoptotic) DNA content / cell death (HeLa cells [1]; HeLa, 16 h, taxol 0.2 μM, Purvalanol A 20 μM, alone or sequential): 6%
- cell cycle arrest (HeLa cells [1]; HeLa, taxol 0.2 μM or purvalanol A 1-20 uM alone (Examples 1, 2)): strong M arrest
- apoptosis (HeLa cells [1]; HeLa, taxol 0.2 μM then 20 uM purvalanol A, 8 h after purvalanol A addition): 40%
- effect of purvalanol A on taxol-treated cells, concentration dependence (HeLa cells [1]; purvalanol A 1, 10 and 20 uM added after taxol 0.2 μM): dose dependent
- efficacy of taxol followed by purvalanol A compared with HeLa cells (MCF-7 cells; taxol 0.2 μM then purvalanol A): nearly identical
- synergy with vincristine treatment (MCF-7 cells; vincristine 10 nM and 100 nM then purvalanol A 10 uM): did not synergize with vincristine treatment
- inhibition of kinase activity (MPM-2 epitope) ([2]; 16 h after addition of purvalanol A in taxol-treated cells, cell line not stated): 70-80%
- MPM-2 mitotic phosphoepitope expression ([2]; HeLa, taxol 0.2 μM 16 h then Cdk inhibitor for 16 h (Purvalanol A 10 μM, alsterpaullone 20 μM, flavopiridol 250 nM, olomoucine 400 μM)): completely suppressed MPM-2 mitotic phosphoepitope expression
- MPM-2 mitotic phosphoepitope expression ([2]; HeLa, taxol 0.2 μM 16 h then Cdk inhibitor for 32 h): completely suppressed MPM-2 mitotic phosphoepitope expression
- p34^cdc2 kinase activity ([2]; HeLa, vincristine 100 nM then Purvalanol A 20 μM, earliest time point tested of 8 h): suppressed p34^cdc2 kinase activity
- survivin levels ([3]; Purvalanol A alone or Purvalanol A followed by taxol): did not affect survivin levels
- survivin expression ([3]; taxol 0.2 μM 16 h then Purvalanol A 20 μM 16 h): inhibition of increased survivin expression after taxol treatment
- survivin expression ([3]; vincristine then Purvalanol A): reversed the increase in survivin expression
- effect on taxol-induced increase of survivin expression [4]: reversed
- phosphorylation of endogenous survivin on Thr^34 [5]: suppressed phosphorylation of endogenous survivin on Thr^34
- kinetics of tumor growth (MCF-7 tumors): did not affect the kinetics of tumor growth
- vincristine-induced apoptosis in the presence or the absence of Purvalanol A (HeLa cells [6]; after 96 h): indistinguishable
- apoptosis, purvalanol A alone or reversed schedule (HeLa cells [6]; purvalanol A 1, 10, 20 uM alone or followed by 0.2 uM taxol): no apoptosis at all
- apoptosis (HeLa cells [6]; taxol 0.2 μM then 20 uM purvalanol A, 16 h after purvalanol A addition): ~90%
- effect of sequential addition to taxol-treated cells (HeLa cells [6]; taxol 0.2 μM then Purvalanol A): escape from the mitotic block, and massive apoptosis
- apoptosis (HeLa cells [6]; vincristine then Purvalanol A, throughout a 32-h culture): did not result in induction of apoptosis
- caspase-9 processing (caspase-9): did not result in significant caspase-9 cleavage

SMILES: COc1cccc2c1C(=O)c1c(O)c3c(c(O)c1C2=O)C[C@@](O)(C(=O)CO)C[C@@H]3O[C@H]1C[C@H](N)[C@H](O)[C@H](C)O1 [adriamycin, doxorubicin]
- apoptosis (MCF-7 cells; adriamycin 100 nM alone, three values given, their conditions not stated): 2% and 3% and 10%
- apoptosis (MCF-7 cells; [10]): negligible apoptosis
- cell cycle arrest (MCF-7 cells; [10]): G2/M arrest
- enhancement of taxol-induced cell death (MCF-7 cells; taxol then adriamycin 100 nM and 200 nM in place of purvalanol A): did not enhance taxol-induced cell death
- residual cell population exhibiting MPM-2 expression [7]: 20-25%
- survivin expression [8]: increased survivin expression
- survivin mRNA [9]: no detectable increase in survivin mRNA
- kinetics of tumor growth vs vehicle (MCF-7 xenografts): did not affect the kinetics of tumor growth
- enhancement of apoptosis vs single agent treatment (HeLa cells [6]; taxol 0.2 μM 16 h then adriamycin 100 nM or 5-Fluorouracil 500 μM): did not result in enhanced apoptosis
